# Results taken from paper PMC12203311, “Design, synthesis, in silico and in vitro evaluation of pyrrole–indole hybrids as dual tubulin and aromatase inhibitors with potent anticancer activities” (RSC Advances, 2025).
# Key:
# Assay in all cases: NCI60 five-dose screen
# OVCAR-4 = type: cell-based; conditions: Homo sapiens, OVCAR-4, ovarian cancer; for CC50: read-out: LC50 (the source's name)
# HS 578T = type: cell-based; conditions: Homo sapiens, breast cancer; for CC50: read-out: LC50 (the source's name)
# IGROV1 = type: cell-based; conditions: Homo sapiens, IGROV-1; IGROV1, ovarian cancer
# SNB-75 = type: cell-based; conditions: Homo sapiens, SNB-75, CNS cancer; for CC50: read-out: LC50 (the source's name)
# MOLT-4 = type: cell-based; conditions: Homo sapiens, MOLT-4, leukemia; for CC50: read-out: LC50 (the source's name)
# KM12 = type: cell-based; conditions: Homo sapiens, KM12, colon cancer; for CC50: read-out: LC50 (the source's name)
# HCT-116 = type: cell-based; conditions: Homo sapiens, HCT-116, colon cancer; for CC50: read-out: LC50 (the source's name)
# NCI-H322M = type: cell-based; conditions: Homo sapiens, NSC lung cancer; for CC50: read-out: LC50 (the source's name)
# U251 = type: cell-based; conditions: Homo sapiens, U-251, U251, CNS cancer; for CC50: read-out: LC50 (the source's name)
# SK-MEL-5 = type: cell-based, human; conditions: Homo sapiens; for CC50: SK-MEL-5, SK-MEL-5, melanoma, read-out: LC50 (the source's name); for GI50: SK-MEL-5, melanoma
# SR = type: cell-based; conditions: Homo sapiens, leukemia; for CC50: read-out: LC50 (the source's name)
SMILES,GI50 (OVCAR-4) [µM],CC50 (OVCAR-4) [µM],GI50 (HS 578T) [µM],CC50 (HS 578T) [µM],GI50 (IGROV1) [µM],GI50 (SNB-75) [µM],CC50 (SNB-75) [µM],GI50 (MOLT-4) [µM],CC50 (MOLT-4) [µM],GI50 (KM12) [µM],CC50 (KM12) [µM],GI50 (HCT-116) [µM],CC50 (HCT-116) [µM],GI50 (NCI-H322M) [µM],CC50 (NCI-H322M) [µM],GI50 (U251) [µM],CC50 (U251) [µM],CC50 (SK-MEL-5) [µM],GI50 (SK-MEL-5) [µM],GI50 (SR) [µM],also measured
"CCOC(=O)c1cc(/C=N/NC(=O)c2[nH]c3ccc(Br)cc3c2-c2ccccc2)c[nH]1 [Derivative 3v, Ethyl (E)-4-((2-(5-bromo-3-phenyl-1H-indole-2-carbonyl)hydrazono)methyl)-1H-pyrrole-2-carboxylate]",9,52.8,3.11,> 100,3.75,1.95,90.6,3.91,> 100,3.37,35.5,3.42,50.5,4.42,76.1,3.8,37.6,17.9,2.01,–,–
"O=C(N/N=C/c1ccc(C(=O)N2CCOCC2)[nH]1)c1[nH]c2ccc(Br)cc2c1-c1ccccc1 [Derivative 3n, (E)-5-Bromo-N′-((5-(morpholine-4-carbonyl)-1H-pyrrol-2-yl)methylene)-3-phenyl-1H-indole-2-carbohydrazide]",2.93,> 100,1.04,> 100,6.69,0.809,88.9,1.5,20.8,2.91,43.6,2.79,66.7,13.9,> 100,3.1,84.7,17,1.48,0.405,CC50 (SR): 38.9 µM
"CCOC(=O)c1c[nH]c(/C=N/NC(=O)c2[nH]c3ccc(Br)cc3c2-c2ccccc2)c1 [Derivative 3j, Ethyl (E)-5-((2-(5-bromo-3-phenyl-1H-indole-2-carbonyl)hydrazono)methyl)-1H-pyrrole-3-carboxylate]",2.28,34.8,2.36,> 100,3.91,1.09,35.8,2.1,53.4,2.21,33.9,2.95,45.6,5.63,50,2.66,40.6,10.1,1.44,0.948,CC50 (SR): > 100 µM
"CCOC(=O)c1ccc(/C=N/NC(=O)c2[nH]c3ccc(Br)cc3c2-c2ccccc2)[nH]1 [Derivative 3i, Ethyl (E)-5-((2-(5-bromo-3-phenyl-1H-indole-2-carbonyl)hydrazono)methyl)-1H-pyrrole-2-carboxylate]",4.26,> 100,1.21,> 100,2.02,0.399,> 100,2.49,> 100,2.22,38,3.24,> 100,3.3,> 100,2.82,39.4,7.68,1.48,–,–
"Cc1[nH]c(/C=N/NC(=O)c2[nH]c3ccc(Br)cc3c2-c2ccccc2)c(C)c1[N+](=O)[O-] [Derivative 3r, (E)-5-Bromo-N′-((3,5-dimethyl-4-nitro-1H-pyrrol-2-yl)methylene)-3-phenyl-1H-indole-2-carbohydrazide]",1.97,18.8,2.43,97.2,3.83,2.19,21.5,2.29,> 100,1.92,11.6,1.98,10.4,4.22,89.5,1.85,13.4,5.87,1.5,2.04,CC50 (SR): > 100 µM
